Molecules are shown by their SMILES.

The data set in a line: gradient 5% acetonitrile 3 min, to 50% in 2 min, to 85% in 15 min, held 3 min, 100 µL/min. The conditions noted are these: column: Zorbax Extend-C18 2.1 x 50 mm; eluents: water / acetonitrile, 0.1% formic acid. In outline:
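Values are retention times taken from adduct peaks that software picked and an analyst inspected. The pure standards were run as mixtures of ~100 molecules on HPLC linked to a quadrupole time-of-flight mass spectrometer, in positive and negative ionization mode. A Zorbax Extend-C18 column (2.1 × 50 mm, 1.8 μm) was used at 100 μL/min with water and acetonitrile, each including 0.1% formic acid.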
`Cc1ccccc1-n1c(=O)c2sccc2n(Cc2nc(-c3ccc(C(C)(C)C)cc3)no2)c1=O` came in with an RP-LC retention time of 1080 s.
As for `COc1ccc2c(c1)C1(CCN(C(=O)c3ccc(C)cc3)C1)C(=O)N2` (stereo not given), the RP-LC retention time is 727 s.
For `CCC(NC(=O)c1nnc(-c2ccc(S(=O)(=O)N(C)C)cc2)o1)c1cccs1` (stereo not given) the value was 912 s; for `COCC(=O)N1CCN(C2CCN(CCC(C)C)C2=O)CC1` (stereo not given), 535 s; for `CCOC(=O)c1c(N)ssc1=S`, 786 s.
The figure for `COc1ccccc1NC(=O)Cn1nc(N2CCOCC2)c2ccccc2c1=O` is 819 s; for `O=C(CSc1nc(=O)n2cc(Cl)ccc2n1)Nc1ccc(OC(F)(F)F)cc1` it is 820 s; for `CCCn1c(C)cnc1C1CN(C(=O)C(C)C)C1` it is 553 s.
For `COc1ccc(OC)c(NC(=O)c2cc(NC(=O)C3CCC3)cc3nc(C)ccc23)c1` the value was 682 s; for `CN(C)S(=O)(=O)c1ccc(-c2nnc(C(=O)NCc3cccc(Cl)c3)o2)cc1`, 969 s; for `Cc1ccc(CNC(=O)N2CC=C(c3cn(C)c4ncccc34)CC2)cc1`, 818 s.
`O=c1ccc(-c2ccc(F)cc2)nn1CCc1nc(-c2ccc(F)c(Br)c2)no1` showed an RP-LC retention time of 1120 s.
For `O=C(CSc1nc(N2CCCCC2)nc2ccccc12)Nc1ccc2c(c1)OCO2` the value was 694 s; for `COc1ccc(OC)c(CNC(=O)CN2C(=O)CSc3cccn3-c3ccccc32)c1`, 914 s; for `Cc1nc2cc(N3CCCC(C(=O)NCCN4CCCCCC4)C3)cnc2nc1C` (stereo not given), 592 s.
`O=C(c1ccoc1)N1CCC(Cc2noc(C3CC3)n2)C1` (stereo not given): the RP-LC retention time stood at 695 s.
Regarding `Cc1cc(C)cc(NC(=O)Cn2c(C)cc(-c3nnc(C)o3)c2C)c1`, the RP-LC retention time stood at 843 s.
On to `Cc1ccc(S(=O)(=O)Nc2ccc(Cn3cncn3)cc2)cc1Cl`, for which the RP-LC retention time came out at 760 s.
The figure for `Cc1ccc2nc(-c3ccccc3)c(Nc3ccc4c(c3)OCCO4)n2c1` is 697 s; for `C=CCNC(=O)C1CCN(C(=O)Nc2ccc(NC(=O)Nc3ccc(C)c(C)c3)cc2)CC1` it is 740 s.
The figure for `Cn1nc(C(=O)N2CCCC(c3nnc(-c4ccccc4F)s3)C2)ccc1=O` (stereo not given) is 690 s; for `CC(C)CN1CCn2cc(S(=O)(=O)Nc3cccc(F)c3)cc2C1=O` it is 786 s; for `CCn1cc(-c2nc(C(=O)Nc3ccc(OC)cc3)cs2)c2cccnc21` it is 1000 s.
For `CNC(=O)Cc1csc(NC(=O)CN(C)c2nc3ccccc3s2)n1` the value was 624 s; for `CCc1ccc(N2C(=O)CN(S(C)(=O)=O)CC2(C)C(=O)NC2CCCCCCC2)cc1` (stereo not given), 1000 s.
Compound `COc1cc(CN2CC(N(Cc3ccncc3)S(C)(=O)=O)C2)cc(OC)c1` showed an RP-LC retention time of 568 s.
In the case of `Cc1noc(C2CN(C(=O)COc3ccc(Cl)cc3)CC23CCOCC3)n1` (stereo not given), the RP-LC retention time worked out at 768 s.
The compound `CCN1CCCn2cc(S(=O)(=O)Nc3cccc(C)c3C)cc2C1=O` registered an RP-LC retention time of 768 s.
The figure for `CCc1ccccc1N(C)C(=O)Cn1ccc2c(=O)n(C)c(=O)n(C)c21` is 735 s; for `Cc1nc(-c2ccccc2Cl)sc1C(=O)NCCc1c[nH]c2ccccc12` it is 1020 s; for `O=C(NCc1csc(C2CCCN(C(=O)c3c(F)cccc3F)C2)n1)C1CCC1` (stereo not given) it is 742 s.
The compound `COCCN1C(=O)[C@H]2CN(Cc3ccc(C)cc3)C[C@H]2C1=O` came in with an RP-LC retention time of 616 s.
In turn, `CCCN1CCN(C(=O)CCc2c(C)c(C(=O)OCC)n(C)c2C)CC1` displayed an RP-LC retention time of 641 s.
Consider `CCOC(=O)c1nc(Nc2ccc(OCC(C)C)cc2)c2ccccc2n1`, for which the RP-LC retention time was determined as 998 s.
As for `CCN(CC)CCNC(=O)CSc1cc(=O)n(C)c2cc(Cl)ccc12`, the RP-LC retention time was 622 s.
For `Cc1ccc(Nc2nc(C)cc(N3CCN(S(=O)(=O)c4ccc5c(c4)OCCO5)CC3)n2)cc1`, the RP-LC retention time was 760 s.
For `CCSc1nnc(NC(=O)CSC2=NN3CCCC(=O)N=C3S2)s1` the value was 683 s; for `COc1ccc(Br)c(C(=O)NCC#CCN(C(C)C)C(C)C)c1`, 567 s; for `Cc1ccc(NC(=O)Cn2cc(-c3ccccc3)c(N(C)C)n2)c(F)c1`, 997 s.
Turning to `Cc1sc(-c2cc(C(F)(F)F)on2)cc1S(=O)(=O)N1CCN(C2CCCCC2)CC1`, the RP-LC retention time was found to be 857 s.
Compound `O=C(NC1CCN(c2ccccc2)C1=O)c1ccccc1C(F)(F)F` (stereo not given) gave an RP-LC retention time of 826 s.
The figure for `Cc1csc(-c2cc(S(=O)(=O)NCCc3ccc(S(N)(=O)=O)cc3)c(C)n2C)n1` is 769 s; for `CCN1c2ccccc2C(=O)NC12CCN(C(=O)c1cccc(OC)c1)CC2` it is 752 s.
For the compound `COc1ccc(OC)c(S(=O)(=O)N2CCCC(C(=O)NCC(C)C)C2)c1` (stereo not given), the RP-LC retention time worked out at 796 s.
The compound `O=C(CN1CCC(c2nc(-c3ccc(F)cc3)no2)CC1)Nc1ccc2c(c1)OCO2` returned an RP-LC retention time of 720 s.
For `O=C(NCC1CC1)c1nnn(Cc2ccc(Cl)cc2)c1-n1cccc1` the value was 1010 s; for `Cc1c(-c2nsc(Nc3ccccc3)n2)nnn1-c1ccccc1`, 946 s; for `O=C(NCc1ccco1)c1cccc(Nc2c(-c3ccc(Cl)cc3)nc3cnccn23)c1`, 826 s.
`Cc1ccc(S(=O)(=O)N2CC3CN(C(=O)NCc4ccco4)CC(C2)O3)cc1` displayed an RP-LC retention time of 767 s.
The figure for `O=C(NCCc1ccccc1)N(C1CCOCC1)C1CCN(Cc2cccnc2)CC1` is 604 s; for `Cc1ccc(CNC(=O)Cn2ncc3c(c2=O)N(C2CC2)C(=O)CS3)cc1C` it is 757 s.
For `O=C(NCCCN1CCCCC1)c1ccc(-c2ccnc(N3CCCC3)n2)cc1` the value was 592 s.
`O[C@@H](c1cc(C(F)(F)F)nc2c(C(F)(F)F)cccc12)[C@@H]1CCCCN1` showed an RP-LC retention time of 829 s.
For `Cc1ccc(C)c(-c2coc(-c3ccc(NC(=O)C4CCCCC4)cc3)n2)c1` the value was 1370 s; for `CCOc1ccccc1CNC(=O)C1CCN(C(=O)c2sccc2-n2cccc2)CC1`, 882 s; for `Cc1cc(C)cc(NC(=O)Cn2nc3n(c2=O)CCCCC3)c1`, 703 s.
Compound `O=C(CC1CCN(C(=O)NCc2ccccc2)CC1)N1CCCCC1` displayed an RP-LC retention time of 703 s.
For `COCCO[C@H]1C(=O)N(C2CCN(S(=O)(=O)C(C)C)CC2)[C@H]1c1ccncc1` the value was 572 s; for `COc1ccc(/C=C/c2nn3c(-c4cccnc4)nnc3s2)cc1`, 860 s; for `CCN(C(=O)C1CCC(C)CC1)c1nc(-c2ccccc2)cs1` (stereo not given), 838 s.
The figure for `Cc1cc(N)c2cc(NC(=O)/C=C\c3ccccc3Cl)ccc2n1` is 751 s; for `CCc1ccccc1NC(=O)N1CCCC(Cn2cnc3cccnc32)C1` (stereo not given) it is 719 s.
For `Cn1cccc1Cc1nnc(SCC(=O)N2CCCc3ccccc32)n1C` the value was 767 s; for `O=c1n(Cc2ccc3c(c2)OCO3)nc2c(-c3nc(-c4ccccc4)no3)cccn12`, 944 s.
`CCn1ccc(C(=O)N2CC(Oc3cccc(-c4nc(C)no4)c3)C2)n1`: the RP-LC retention time came to 808 s.
The figure for `CC1(C(=O)NCc2ccccc2)Cn2cnc(C(=O)NC3CC3)c2C(=O)N1C1CC1` (stereo not given) is 660 s.
The figure for `CCC(C)(C)NS(=O)(=O)c1cccc(-c2nc(-c3ccc(C)cc3)no2)c1` is 1290 s; for `Cc1ccc(CNC(=O)c2ncn3c2C(=O)N(C2CC2)C(C)(C(=O)NC2CCCC2)C3)cc1` (stereo not given) it is 770 s; for `O=c1c2sccc2n(Cc2nc(-c3ccc(OC(F)(F)F)cc3)no2)c(=O)n1-c1ccccc1` it is 1080 s.
For `Cc1nc2cc(NS(=O)(=O)c3cccc4cccnc34)ccc2s1` the value was 753 s.
For the compound `O=C(Cn1nc2c(N3CCN(c4ccccc4)CC3)nccn2c1=O)Nc1ccccc1Cl`, the RP-LC retention time worked out at 928 s.
Turning to `COc1ccc(Cl)cc1NC(=O)N1CCCC(C)(C(=O)NCc2ccc(F)cc2)C1` (stereo not given), the RP-LC retention time is 1020 s.
The figure for `Cc1nn(C)c(=O)c2cc(S(=O)(=O)NCc3ccc(F)cc3)cn12` is 766 s; for `COc1ccc(N2CCN(c3nccc4ccc(C(=O)NCCC5=CCCCC5)cc34)CC2)cc1` it is 888 s; for `CCCN(C(C)=O)c1nc(-c2cccc(Br)c2)cs1` it is 1260 s.
The figure for `COC(=O)C1=C(C)N(C2CCCC2)C(=O)C1(NC(=O)c1ccccc1OC)C(F)(F)F` (stereo not given) is 1070 s; for `COc1ccc2c(c1)C(C)CC(C)(C)N2C(=O)CSc1ncccn1` (stereo not given) it is 994 s; for `Cc1noc(-c2cccnc2N2CCN(C(c3ccccc3)c3ccccc3)CC2)n1` it is 742 s.
`COc1cccc(OCC(O)CN2CCN(c3ccccc3)CC2)c1` (stereo not given) had an RP-LC retention time of 727 s.
The compound `Oc1cc2c(cc1O)[C@H]1c3ccccc3CN[C@@H]1CC2` returned an RP-LC retention time of 628 s.

The values are drawn from the METLIN SMRT retention time set (Domingo-Almenara et al. 2019).
